Data from US20130190345A1, “MATRINIC ACID/MATRINE DERIVATIVES AND PREPARATION METHODS AND USES THEREOF” (priority 2010, published 2013).
≈ marks a conversion by molar mass, not a printed value.

Columns and labels:
Format in all cases: cell-based
2.2.15 cells = test: Drug TC50 by MTT detection; conditions: Reed-Muench
Method: 2.2.15 cells (all cells were purchased from Vertex Pharmaceutical Co., USA) in exponential growth phase were inoculated on 96-well culture plate, 2×10^5 cells/well, added with culture media containing PFA diluted in different concentration rates, 3 wells for each diluted concentration, placed in 37° C. CO2—containing incubator and cultivated for 48 h; the supernatant was discarded, 100 μl of MTT (0.5 mg/ml) in culture medium was added, cultivation was continuously performed at 37° C. for 4 h; each well was added to 100 μl of 50% DMF-20% SDS destaining solution, stood at 37° C. overnight; ELISA was used to measure optical density at wavelength of 570 nm (0D570).
In each experiment, 3 cell control wells and 3 blank controls well were set, the results were used in formula, (cell control OD570-drug-medicated cell OD570)/cell control OD570, to calculate cell death rate (%), and Reed-Muench method was used to calculate half toxic concentration TC50.

Hsc70 [1] = test: Detection of Hsc70 gene expression level upon action of compound on 2.2.15 cells (real-time fluorescent quantified PCR); set-up: Hsc70 mRNA / Hsc70 down-regulation rate (%): unit not given here; conditions: for Hsc70 inhibition rate (down-regulation of Hsc70 expression activity, expressed in relative OMT ratio): 2.2.15 cells, relative to OMT (= 1); for Hsc70 down-regulation rate (%): single value, concentration not given, values coincide with Table 1 relative OMT ratios
Method: 2.2.15 cells (purchased from Vertex Pharmaceutical Co., USA) in a number of 1×10^6 were inocubated to 6-well plate, cultured in a culture medium containing 10% fetal calf serum for 24 hr, the original culture medium was discarded, replaced with a culutre medium containing 400 μg/ml OMTR, which was used as control. Compounds were firstly dissolved in MEM to form 20 mg/ml mother liquid, which was diluted with culture medium when used and then applied to cells. The compounds of Examples 1-114 were separately used for treatment for 12, 24, 36 hr, then cells were harvested for extraction of RNA and DNA, then the changes of Hsc70 mRNA and HBV DNA were detected by real-time fluorescent quantified PCR.

HCV = test: Inhibition effects of compounds on HCV in Huh7.5 cultured cell after HCV infection; conditions: for EC50 (half effective concentration): virus not given, stands beside HCV inhibition rate
Method: 1×10^5/ml Huh7.5 cells (purchased from Vertex Pharmaceutical Co., USA) were inoculated in an amount of 0.1 ml on 96-well culture plate, placed in an incubator with 37° C., 5% CO2 content and saturation humidity, and cultured for 24 h, HCV virus in 45 IU/cell was used to infect Huh7.5, different drug solutions (DM122) formulated with culture medium were added, and cell control and HCV infection control were set. Cultivation was continuously performed in the incubator with 37° C., 5% CO2 content and saturation humidity for 72 h, kit for RNA extraction was used to extract intracellular RNA, one-step qRT-PCR was used to determine intracellular contents of HCV and GAPDH RNA, and the inhibition effects of drug on HCV infection was analyzed. […] In comparison with the virus control group, the inhibition effects on HCV infection upon action of different drugs were analyzed. […] This experiment was repeated for 3 times, * indicated […] in comparison with control, ** indicated p<0.01 in comparison with control.

Hsc70 [2] = test: Inhibition effects of compound on Hsc70 in Huh7.5 cultured cell (qRT-PCR, Western blotting); set-up: key to Hsc70 down-regulation rate (%): “—” represents no significant inhibition rate
Method: 2×10^5/ml Huh7.5 cells (purchased from Vertex Pharmaceutical Co., USA) were inoculated in an amount of 3 ml on 6-well culture plate, placed in an incubator with 37° C., 5% CO2 content, saturation humidity, and cultured for 24 h, added with different drug solutions (DM122) formulated with culture medium, and cell control was set. Cultivation was continuously performed in the incubator with 37° C., 5% CO2 content, saturation humidity for 24 h, a kit for RNA extraction was used to extract intracellular RNA from the cells, and one-step qRT-PCR was used to determine intracellular contents of Hsc70 and GAPDHRNA. After the cultivation of cells was performed for 48 h, the cells were digested and harvested, then the cells were split with CytoBuster™ Protein Extraction Buffer that contained many kinds of protease inhibitors, total intracellular proteins were extracted, and Western blotting was used to analyze the contents of Hsc70 and GAPDH proteins. In comparison with the cell control, the inhibition effects on Hsc70 upon action of different drugs were analyzed.

Molecule	CC50 (concentration to cause poisoning in half cells) (2.2.15 cells) [µg/mL]	Hsc70 inhibition rate (down-regulation of Hsc70 expression activity, expressed in relative OMT ratio) (Hsc70 [1])	HCV inhibition rate (%) (HCV; 200 ug/ml (upper data))	HCV inhibition rate (%) (HCV; 400 ug/ml (lower data))	EC50 (half effective concentration) (HCV) [µg/mL]	Hsc70 down-regulation rate (%) (Hsc70 [2]; 200 ug/ml (upper data))	Hsc70 down-regulation rate (%) (Hsc70 [2]; 400 ug/ml (lower data))	Hsc70 down-regulation rate (%) (Hsc70 [1])
Cc1ccc(CN2CC3CCCN4CCCC(C2CCCC(=O)O)C34)cc1 (centres unmarked) [DM-140, N-(4-methylbenzyl) matrinic acid]	>1000	0.77	83.4 ± 1.8	96.0 ± 1.2	18.68 (≈ 50.4 µM)	53.8 ± 7.6%	—	
Cc1cccc(CN2CC3CCCN4CCCC(C2CCCC(=O)O)C34)c1 (centres unmarked) [DM-139, N-(3-methylbenzyl) matrinic acid]	885.1 (≈ 2390 µM)	1.39	88.5 ± 4.8	98.1 ± 1.0	98.65 (≈ 266 µM)	20.5 ± 24.8%	—	
O=C(O)CCC[C@@H]1[C@H]2CCCN3CCC[C@@H](CN1Cc1ccccc1F)[C@@H]23 [DM-135, N-(2-fluorobenzyl)matrinic acid]	620.68 (≈ 1660 µM)	0.41	74.3 ± 8.2	90.5 ± 2.0	29.86 (≈ 79.7 µM)	0.1 ± 5.6%	—	
O=C(O)CCCC1C2CCCN3CCCC(CN1Cc1ccc(Cl)cc1)C23 (centres unmarked) [DM-126, N-(4-chlorobenzyl) matrinic acid]	>1000	0.62			21.11 (≈ 54 µM)			0.62
O=C(O)CCCC1C2CCCN3CCCC(CN1Cc1ccccc1Cl)C23 (centres unmarked) [DM-124, N-(2-chlorobenzyl) matrinic acid]	504.6 (≈ 1290 µM)	0.32			68.27 (≈ 175 µM)			0.32
COc1ccc(S(=O)(=O)N2CC3CCCN4CCCC(C34)C2CCCC(=O)O)cc1 (centres unmarked) [DM-103, N-(4-methoxybenzenesulfonyl) matrinic acid]	>1000		69.1 ± 14.5	91.4 ± 1.8	135.71 (≈ 311 µM)	74.8 ± 5.6%	—	
O=C(O)CCCC1C2CCCN3CCCC(CN1Cc1cccc(Cl)c1Cl)C23 (centres unmarked) [DM-129, N-(2,3-dichlorobenzyl) matrinic acid]	245.5 (≈ 577 µM)	0.27			192.02 (≈ 451 µM)			0.27
Cc1ccc(C(=O)N2CC3CCCN4CCCC(C34)C2CCCC(=O)O)cc1 [Compound L7, (5R)—N-(p-methylbenzoyl)matrinic acid]	>1000		89.5 ± 2.0	95.7 ± 1.1	291.73 (≈ 759 µM)	63.3 ± 1.2%	—	
O=C(O)CCCC1C2CCCN3CCCC(CN1Cc1cccc(Cl)c1)C23 (centres unmarked) [DM-125, N-(3-chlorobenzyl) matrinic acid]	>1000	<10			34.35 (≈ 87.9 µM)			−67.97
N-(4-ethenyl benzyl) matrinic acid [DM-136]	70.49	0.76			1.80			0.76
O=C(O)CCC[C@@H]1[C@H]2CCCN3CCC[C@@H](CN1Cc1ccc(OC(F)(F)F)cc1)[C@@H]23 [DM-162, N-(4-trifluoromethoxybenzyl) matrinic acid]	431.6 (≈ 980 µM)		96.2 ± 0.3	99.1 ± 0.1	34.06 (≈ 77.3 µM)	—	—	
N#Cc1ccc(CN2C[C@@H]3CCCN4CCC[C@@H]([C@H]34)[C@H]2CCCC(=O)O)cc1 [DM-134, N-(4-cyanobenzyl) matrinic acid]	>1000	0.57			52.18 (≈ 137 µM)			0.57
O=C(O)CCC[C@@H]1[C@H]2CCCN3CCC[C@@H](CN1Cc1ccc(Cl)c(Cl)c1)[C@@H]23 [DM-127, N-(3,4-dichlorobenzyl) matrinic acid]	427.8 (≈ 1010 µM)	−2.92			113.64 (≈ 267 µM)			−2.92
O=C(O)CCCC1C2CCCN3CCCC(CN1C(=O)c1ccc(F)cc1)C23 (centres unmarked) [DM-154, N-(4-fluorobenzoyl) matrinic acid]	>1000				>333.33			
O=C(O)CCCC1C2CCCN3CCCC(CN1Cc1ccccn1)C23 (centres unmarked) [DM-143, N-(pyridin-2-yl) methyl matrinic acid]	374.5 (≈ 1050 µM)	1.1			12.46 (≈ 34.9 µM)			1.1
O=C(O)C=CCC1C2CCCN3CCCC(CN1S(=O)(=O)c1ccc(C(F)(F)F)cc1)C23 (centres unmarked) [SC-84a, N-(p-trifluoromethylbenzene sulfonyl) sophocarpinic acid]	530.07 (≈ 1120 µM)				7.54 (≈ 16 µM)			
O=C(O)CCCC1C2CCCN3CCCC(CN1Cc1ccc(Br)cc1)C23 (centres unmarked) [DM-128, N-(4-bromobenzyl) matrinic acid]	535.1 (≈ 1230 µM)	−5.78			51.66 (≈ 119 µM)			−5.78
O=C(O)CCC[C@@H]1[C@H]2CCCN3CCC[C@@H](CN1Cc1cscn1)[C@@H]23 [DM-146, N-(thiazol-4-yl)methyl matrinic acid]	>1000	0.92			63.99 (≈ 176 µM)			0.92
Cc1ccc([N+](=O)[O-])cc1C(=O)N1C[C@@H]2CCCN3CCC[C@@H]([C@H]23)[C@H]1CCCC(=O)O [DM-131, N-(2-methyl-5-nitrobenzoyl) matrinic acid]	>1000	−0.86			89.31 (≈ 208 µM)			−0.86
O=C(O)CCCC1C2CCCN3CCCC(CN1Cc1cccnc1)C23 (centres unmarked) [DM-144, N-(pyridin-3-yl) methyl matrinic acid]	>1000				31.8 (≈ 89 µM)			
